How the values were obtained:
[1] = test system: extracellular concentration of serotonin in frontal cortex; test: Microdialysis experiment in rats (frontal cortex, extracellular serotonin); type: in vivo; settings: rat frontal cortex, M ± s.e.m.
Source text: Carried out in the frontal cortex, these tests make it possible, in the case where the products cause an increase in the release of serotonin, to envisage their use for depression, impulsive disorders and obesity. If they cause a decrease in the release of serotonin they will be beneficial in the treatment of anxiety, panic attacks, sleep problems, cognitive problems and drug abuse problems. Finally, if they produce an increase in dopamine and/or noradrenalin, they will be beneficial in the treatment of schizophrenia and, as above, in the treatment of depression and cognitive problems.
Microdialysis Experiment in Rats
The rats are anaesthetised with pentobarbital (60 mg/kg i.p.). They are placed in a Kopf stereotaxic apparatus and the cannula guide is implanted in the frontal cortex cingulum in accordance with the coordinates described as follows in the Paxinos and Watson atlas (1982): AP:+2.2, L:±0.6, DV:-0.2. The rats are placed in separate cages and are not used in dialysis until 5 days later. On the day of dialysis, the probe is slowly inserted and maintained in its position. […] Simultaneous quantification of dopamine, norepinephrine and serotonin is carried out as follows: 20 μl of dialysis samples are diluted with 20 μl of mobile phase (NaH2 PO4 : 75 mM, EDTA: 20 μM, sodium 1-decanesulphonate: 1 mM, methanol: 17.5%, triethylamine: 0.01%, pH: 5.70) and 33 μl are analysed by HPLC with an inverse phase column (Hypersil ODS 5 μm, C18, 150×4.6 mm, Thermo Separation Products, Les Ulis, France) thermostatically controlled at 45° C. and quantified by way of a coulometric detector. […]
M±s.e.m.=mean of the effect all times merged after administration of the products±standard error of the mean, and n=number of animals. The quantities of the neurotransmitters are expressed as a function of the mean of the three base values before administration of the products and are defined as 0%. […] The reversion of the decrease of the extracellular concentration of serotonin produced by GR 46611 is evaluated statistically by an analysis of variance with drugs as between factor, F (1,25)=26.5, P<0.01.

[2] = test system: GR46611-induced hypothermia (prototype agonist 5HT1B) in the guinea-pig; test: Hypothermia test in the guinea-pig; type: in vivo; settings: for ΔT° C. (at 90 minutes): mean ± s.e.m., N ≥ 6
Source text: Using the hypothermia test on the guinea-pig (M. Stingle et al., J. of Pychopharmacology, 1994. 8, 14) it was possible to determine the agonist or antagonist nature of the products of the invention.
Hypothermia Test in the Guinea-Pig
The guinea-pigs are kept in batteries of three, with free access to food and water, for one week before entering the study. One hour before each experiment, the guinea-pigs are placed in individual cages with free access to water. They are put back in their respective batteries at the end of each experiment. The temperature measurements are carried out using a digital thermometer and a rectal probe. Each guinea-pig is weighed, its base body temperature is taken and then the compound of the present invention to be evaluated is injected i.p. or p.o. In the case of an agonist, the body temperature of each guinea-pig is taken every 30 minutes for 2 hours.
In the case of an antagonist, 15 minutes after its injection each guinea-pig is injected again i.p. with the prototype agonist 5HT1B : GR46611 (5 mg/kg). The temperature is then taken every 30 minutes for 2 hours.
The criterion used for evaluation is the difference in temperature at a given time in relation to the base temperature. For each dose of product and for each time (t30, t60, t90, t120) the mean and the standard error of the mean are calculated.

[3] = target: T1, 5HT1B receptor (Cavia porcellus, UniProt O08892); test: 5-HT1B binding ([3H]-GR 125743, guinea-pig striatal membranes); settings: [3H]-GR 125743 1 nM, guinea-pig striata membranes; pKi = -log Ki
T1 construct: After the dissection of guinea-pig brains, the extracted striata are frozen; from tissue; host or cells: guinea-pig striatum membranes
Experimental: a) Preparation of the Membranes
After the dissection of guinea-pig brains, the extracted striata are frozen and then homogenised in 20 volumes (weight/volume) of 50 mM tris-HCl (pH 7.7 at room temperature) containing 4 mM CaCl2 and 0.1% ascorbic acid, and centrifuged at 48,000 g for 25 minutes at 4° C. The supernatant is separated and the precipitate is resuspended in the same volume of buffer before being incubated at 37° C. for 15 minutes in order to extract the endogenous serotonin. Finally, the suspension is centrifuged at 48,000 g for 25 minutes at 4° C. and the precipitate is resuspended in 80 volumes of buffer that contains 10 μM pargyline. […]
The data are analysed by non-linear regression using the PRISM programme (Graphpad Software Inc., San Diego, Calif.) in order to determine the Kd values (dissocation constant of the radioligand), the Bmax values (maximum number of sites) for the saturation experiments and the IC50 values (50% inhibiting concentration) and the Hill number for the competition experiments. The inhibition constant (Ki) is calculated according to the Cheng-Prussof equation: Ki =IC50 /1+L/Kd wherein L represents the concentration of the radioligand. The results are expressed as pKi =-log Ki.

[4] = target: T2, 5HT1A receptor (Rattus norvegicus, UniProt P19327); test: 5HT1A binding; settings: methods known from the literature; read-out: pKi 5HT1A receptor (converted)
T2 sequence (P19327 1-422): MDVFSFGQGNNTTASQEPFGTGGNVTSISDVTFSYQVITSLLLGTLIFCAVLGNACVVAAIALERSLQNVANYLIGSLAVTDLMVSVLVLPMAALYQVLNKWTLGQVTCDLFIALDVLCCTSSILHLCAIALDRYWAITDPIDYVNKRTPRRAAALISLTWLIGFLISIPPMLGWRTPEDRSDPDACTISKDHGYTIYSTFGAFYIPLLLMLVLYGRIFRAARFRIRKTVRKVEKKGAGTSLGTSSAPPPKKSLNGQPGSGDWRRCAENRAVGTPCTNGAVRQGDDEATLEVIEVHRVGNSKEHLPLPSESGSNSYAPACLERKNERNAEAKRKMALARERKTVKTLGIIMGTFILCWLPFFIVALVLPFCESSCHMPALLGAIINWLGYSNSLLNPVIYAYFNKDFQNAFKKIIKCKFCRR
Experimental: The 5HT1A receptor binding studies were carried out according to methods known and described in the literature (cf. S. J. Peroutka, J. Neurochem., 1986, 47, 529-40, M. J. Millan, J. Pharmacol. Exp. Ther., 1994, 268, 337-52). The results are also expressed as pKi. The compounds of the present invention have a very low affinity for the 5HT1A receptor.

T1 sequence (O08892 whole entry): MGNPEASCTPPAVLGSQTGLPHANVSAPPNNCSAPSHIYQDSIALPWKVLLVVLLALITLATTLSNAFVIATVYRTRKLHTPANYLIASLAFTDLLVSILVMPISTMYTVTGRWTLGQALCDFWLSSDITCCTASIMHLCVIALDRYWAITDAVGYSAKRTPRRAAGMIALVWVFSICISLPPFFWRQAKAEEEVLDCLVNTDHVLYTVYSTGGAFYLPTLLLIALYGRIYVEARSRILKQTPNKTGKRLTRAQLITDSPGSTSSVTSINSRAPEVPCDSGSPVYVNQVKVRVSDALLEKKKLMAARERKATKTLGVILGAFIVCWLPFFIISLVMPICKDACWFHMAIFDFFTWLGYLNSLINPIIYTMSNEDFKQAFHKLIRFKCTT

c1ccc2c(c1)CC(NC1CCN(c3cccc4c3OCCO4)CC1)C2 [Example 1, 1-(2,3-dihydro[1,4]benzodioxin-5-yl)-4-[N-(indan-2-yl)amino]piperidine]
extracellular serotonin, mean effect all times merged relative to base values (0%) ([1]; Product of Example 1 10.0 mg/kg s.c. + GR 46611 10.0 mg/kg s.c. 20 minutes later): +0.7 ± 3.4% | extracellular serotonin, mean effect all times merged relative to base values (0%) ([1]; Product of Example 1 10.0 mg/kg s.c. + Vehicle): -9.5 ± 3.7% | ΔT° C. (at 90 minutes) ([2]; Product of Example 1 0.04 mg/kg i.p. then GR 46611 5 mg/kg i.p.): -0.82 ± 0.30 °C | ΔT° C. (at 90 minutes) ([2]; Product of Example 1 0.16 mg/kg i.p. then GR 46611 5 mg/kg i.p.): -0.75 ± 0.22 °C | agonist or antagonist nature ([2]; hypothermia test, i.p.): acts as an antagonist

c1cc2c(c(N3CCC(NC4Cc5cc6c(cc5C4)OCO6)CC3)c1)OCCO2 [Example 3, 1-(2,3-dihydro[1,4]benzodioxin-5-yl)-4-[N-(5,6-methylenedioxyindan-2-yl)amino]-piperidine]
Ki [3]: 3.16 nM | Ki [4]: 631 nM

COc1ccc(CNC(=O)C=Cc2ccc3[nH]cc(CCN(C)C)c3c2)cc1 [GR 46611, reference compound]
extracellular serotonin, mean effect all times merged relative to base values (0%) ([1]; Vehicle + GR 46611 10.0 mg/kg s.c.): -40.7 ± 2.3% | ΔT° C. (at 90 minutes) ([2]; Vehicle i.p. then GR 46611 5 mg/kg i.p.): -1.04 ± 0.15 °C
